Data from ChEMBL document CHEMBL3600332, “Novel dammarane-type triterpenes isolated from hydrolyzate of total Gynostemma pentaphyllum saponins” (Bioorg Med Chem Lett, 2015).
The source made the active and inactive calls. The calls are words filed in the database; no cut-off is given here.

How the values were obtained:
[1] = Cytotoxicity against human BGC823 cells after 48 hrs by MTT assay; format: functional, cell-based; conditions: BGC-823, 48 h
HCT-116 = experiment: Cytotoxicity against human HCT116 cells after 48 hrs by MTT assay; format: functional, cell-based; conditions: HCT-116, 48 h
HT-29 = experiment: Cytotoxicity against human HT-29 cells after 48 hrs by MTT assay; format: functional, cell-based; conditions: HT-29, 48 h
MCF7 [2] = experiment: Cytotoxicity against human MCF7 cells after 48 hrs by MTT assay; format: functional, cell-based; conditions: for IC50: MCF7, 48 h
[3] = Cytotoxicity against human MCF10A cells after 48 hrs by MTT assay; format: cell-based; conditions: MCF-10A
MCF7 [4] = experiment: Cytotoxicity against human MCF7 cells at 1 uM by MTT assay; format: functional, cell-based; conditions: TDE = time-dependent effect
MCF7 [5] = experiment: Induction of apoptosis in human MCF7 cells assessed as bubble-shaped regions at 20 uM after 36 hrs by phase-contrast microscopic analysis; format: functional, cell-based
MCF7 [6] = experiment: Induction of apoptosis in human MCF7 cells assessed as condensed chromatin in nucleus at 20 uM after 36 hrs by DAPI staining; format: functional, cell-based
MCF7 [7] = experiment: Cell cycle arrest in human MCF7 cells assessed as accumulation at subG1 phase at 20 uM after 12 to 36 hrs using propidium-iodide staining by flow-cytometry (reference value: 0.41%); format: functional
MCF7 [8] = experiment: Cell cycle arrest in human MCF7 cells assessed as accumulation at M1 phase at 20 uM after 12 to 36 hrs using propidium-iodide staining by flow-cytometry (reference value: 0.95%); format: functional

Structure (SMILES) | IC50 [1] [µM] | IC50 (HCT-116) [µM] | IC50 (HT-29) [µM] | IC50 (MCF7 [2]) [µM] | IC50 [3] [µM] | Activity (MCF7 [2]) | Activity (MCF7 [4]) | Activity (MCF7 [5]) | Activity (MCF7 [6]) | Activity (MCF7 [7]) [%] | Activity (MCF7 [8]) [%]
CC(C)(O)CC/C=C(/CO[C@@H]1O[C@H](CO)[C@@H](O)[C@H](O)[C@H]1O)[C@H]1CC[C@]2(C)[C@@H]1CC[C@@H]1[C@@]3(C)CC[C@H](O)C(C)(C)[C@@H]3CC[C@]12C | > 100 | 67.3 | 33.6 | 52.4 | > 100 | – | – | – | – | – | –
COC(C)(C)CCC[C@@](O)(CO[C@@H]1O[C@H](CO)[C@@H](O)[C@H](O)[C@H]1O)[C@H]1CC[C@]2(C)[C@@H]1CC[C@@H]1C3=C(CC[C@]12C)C(C)(C)[C@@H]1CC[C@H]3O1 | > 100 | 55.7 | 28.1 | 6.85 | > 100 | Dose-dependent effect | tde | Active | Active | 17.09 | 74.59
CC(C)(O)CC/C=C(/CO[C@@H]1O[C@H](CO)[C@@H](O)[C@H](O)[C@H]1O)[C@@H]1CC[C@]2(C)[C@@H]1CC[C@@H]1[C@@]3(C)CC[C@H](O)C(C)(C)[C@@H]3CC[C@]12C | > 100 | 66.5 | 30.5 | 46.3 | > 100 | – | – | – | – | – | –
CC(C)(O)CCC[C@@H](CO[C@@H]1O[C@H](CO)[C@@H](O)[C@H](O)[C@H]1O)[C@H]1CC[C@]2(C)[C@@H]1CC[C@@H]1C3=C(CC[C@]12C)C(C)(C)[C@@H]1CC[C@H]3O1 | > 100 | > 100 | 32 | 21.2 | > 100 | – | – | – | – | – | –
CC(C)(O)CC/C=C(/CO[C@@H]1O[C@H](CO)[C@@H](O)[C@H](O)[C@H]1O)[C@H]1CC[C@]2(C)[C@@H]1CC[C@@H]1C3=C(CC[C@]12C)C(C)(C)[C@@H]1CC[C@H]3O1 | > 100 | > 100 | 26.1 | 14.3 | > 100 | – | – | – | – | – | –
